Reference: US10766914B2, “DNA alkylating agents” (OBI PHARMA, INC., priority 2015, dated 2020)

Assays:
[1] = Example 4-D body weight change and lethal toxicity, A549 xenograft study; format: in vivo, female nude mice (nu/nu)
Procedure: (§1) Cells were mixed with Matrigel (50% with exception for 30% in the H460) and 0.2 ml per mouse were subcutaneously implanted to the flank area of the animals. When tumor size reached 100-150 250 mm3, mice were randomized into experimental or vehicle groups with 10 mice/group and treatment was started (Day 1). The tested compounds were formulated in 5% DMSO in D5W. The regimens employed in the examples include IP, QD×5/wk (5 days on, 2 days off) as one cycle, for a total of 2 cycles; IP, once; IP, weekly for total 3 weeks; and IV, weekly for 3 weeks. Tumor growth and body weight were measured twice a week. Tumor volume was calculated as (length×width2)/2. Drug efficacy was assessed as Tumor Growth Inhibition (TGI) and Tumor Growth Delay (TGD). TGI was defined as (1−ΔT/ΔC)×100, where ΔT/ΔC presented the ratio of the change in mean (or median, if variation within the group was relatively large) tumor volume of the treated group and of the control group. TGD was calculated as the extra days for the treated tumor to reach 500 mm3 or 1000 mm3 as compared to the control group. Animals were culled when individual tumor size reached over 2000 mm3 or mean tumor volume exceeded 1000 mm3 in the group. Data are expressed as the mean±SEM. One-way analysis of variance with Dunnett post comparison test (GraphPad Prism 4) or two-tailed student's t-test were used for analysis. A P level <0.05 was considered statistically significant.
(§2) The compounds were tested in another A549 model. The compounds were dosed as follows. Daily IP dosing: 5 doses then 2 days off then 5 more doses starting at 100 mm^3 tumors on day 1 (10 animals per group average tumor volume). The antitumor effects and the safety of administration are graphically illustrated below.

[2] = tested on: H460 cells; assay: Proliferation assay in H460 cells (2 hr exposure, AlamarBlue); format: cell-based, human; conditions: Homo sapiens, NCI-H460, 2 hrs exposure, wash, 70 hrs growth, read-out: IC 50 in proliferation assay in H460 cells
Procedure: In vitro proliferation data on the H460 […] human tumor cell line is reported above in the compound table.
Specifically, exponentially growing cells were seeded at a density of 4×10^3 cells per well in a 96 well plate and incubated at 37° C. in 5% CO2, 95% air and 100% relative humidity for 24 hours prior to addition of test compounds. Compounds were solubilized in 100% DMSO at 200 times the desired final test concentration. At the time of drug addition, compounds were further diluted to 4 times the desired final concentration with complete medium. Aliquots of 50 μl of compound at specified concentrations were added to microtiter wells already containing 150 μl of medium, resulting in the final drug concentration reported. After drug addition, the plates were incubated for an additional 2 hours at 37° C., 5% CO2, 95% air, and 100% relative humidity, then the drug was washed off and fresh medium was added and the plates were incubated for addition 70 hrs at 37° C., 5% CO2, 95% air and 100% relative humidity. At the end of this incubation, the viable cells were quantified using the AlamarBlue assay. The drug concentration resulting in growth inhibition of 50% (IC50) was calculated using Prism software (Irvine, Calif.), and the results were listed in the table.

[3] = tested on: A549 NSCLC xenograft; assay: Example 4-D antitumor efficacy, ectopic A549 NSCLC xenograft model; format: in vivo, female nude mice (nu/nu)
Text: (§3) Specific pathogen-free homozygous female nude mice (nu/nu, Charles River Laboratories) were used. Mice were given food and water ad libitum and housed in microisolator cages. Four to six week old animals were identified by microchips (Locus Technology, Manchester, Md., USA) at the time of the experiments. All animal studies were approved by the Institutional Animal Care and Use Committee at Threshold Pharmaceuticals, Inc.
(§4) All cell lines were from the American Type Culture Collection (ATCC, Rockville, Md., USA).
as §1, §2

[4] = molecular target: T1, AKR1C3 (Homo sapiens, UniProt P42330); assay: Activation by the aldoketo reductase AKR1C3 (% remaining, LC/MS/MS); format: biochemical; conditions: for % Remaining: 5 μM, 25 μg/mL AKR1C3, 2 mM NADPH, 37° C.
T1 sequence (P42330 1-323): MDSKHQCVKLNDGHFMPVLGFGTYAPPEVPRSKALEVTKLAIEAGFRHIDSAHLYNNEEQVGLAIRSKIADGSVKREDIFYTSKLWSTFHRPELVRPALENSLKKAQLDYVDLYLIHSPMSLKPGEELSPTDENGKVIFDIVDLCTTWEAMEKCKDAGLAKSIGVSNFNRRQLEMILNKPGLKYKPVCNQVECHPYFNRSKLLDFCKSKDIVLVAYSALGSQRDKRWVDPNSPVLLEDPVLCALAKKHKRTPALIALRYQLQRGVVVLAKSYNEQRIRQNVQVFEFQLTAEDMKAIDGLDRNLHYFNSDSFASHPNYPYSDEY
Procedure: Recombinant human AKR1C3 was diluted to 25 μg/mL in phosphate buffered saline (PBS), pH 7.4 (37° C.), containing 2 mM NADPH. TH2870 or progesterone (positive control) in 30% methanol/70% water was added to the reaction mixture at a final concentration of 5 μM and incubated at 37° C. for 120 minutes. At various times up to 120 min, 50 μL of the reaction mixture was taken and 200 μL acetonitrile containing propranolol as internal standard was added, vortex-mixed and centrifuged for 10 min. The resulting supernatant (5 μL) was injected into a LC/MS/MS for quantitation of % remaining TH2870 and progesterone. The compounds were tested in duplicate.

[5] = tested on: A375 melanoma human tumor xenograft; assay: Example 4-C antitumor efficacy, ectopic A375 melanoma xenograft model; format: in vivo, female nude mice (nu/nu); conditions: qd × 5 × 2, ip
Text: as §3, §4, §1
his study employed an A375 melanoma human tumor xenograft model and various compounds provided herein were compared to thiotepa and the approved anti melanoma drug, nab-Paclitaxel.

[6] = Example 4-B body weight change, A549 xenograft study; format: in vivo, female nude mice (nu/nu)
Procedure: as §1
Antitumor effects of compounds provided herein were determined on A 549 non-small cell lung xenograft model in comparison with a chemotherapy agent, thiotepa. The dosing was as follows. Daily IP dosing: 5 doses then 2 days off then 5 more doses starting at 110 mm^3 tumors on day 1 (10 animals per group average tumor volume). The antitumor effects and the safety of administration are graphically illustrated below.

[7] = Example 4-C body weight change, A375 xenograft study; format: in vivo, female nude mice (nu/nu); conditions: 2.5 mpk, qd × 5 × 2, ip
Procedure: as §1
his study employed an A375 melanoma human tumor xenograft model and various compounds provided herein were compared to thiotepa and the approved anti melanoma drug, nab-Paclitaxel. The antitumor effects and the safety of administration are graphically illustrated below.

[8] = tested on: A 549 non-small cell lung xenograft; assay: Example 4-B antitumor efficacy, ectopic A549 NSCLC xenograft model; format: in vivo, female nude mice (nu/nu)
Text: as §3, §4, §1
The dosing was as follows. Daily IP dosing: 5 doses then 2 days off then 5 more doses starting at 110 mm^3 tumors on day 1 (10 animals per group average tumor volume).
Doses were selected by first doing a toxicity test in CD1 mice as described above. The compounds were tested against Thio-tepa.

[9] = 1.25 mg/kg ip QD × 5/wk × 2 wks

Cc1nc2ccc(Oc3cc(COP(=O)(N4CC4)N4CC4)ccc3[N+](=O)[O-])cc2s1 [Compound 2931]
Max. BW loss % ([1]; 5 mg/kg IP QD × 5): 25.0%
Lethal Tox ([1]; 5 mg/kg IP QD × 5, 10 animals per group): 10
IC50 [2]: 1 nM

CC(OP(=O)(N1CC1)N1CC1)c1ccc([N+](=O)[O-])c(Oc2ccc3ncccc3c2)c1 (centres unmarked) [Compound 2952]
TGD 500 ([3]; 20 mg/kg IP QD × 5/wk × 2 wks): 70 days
TGI ([3]; 20 mg/kg IP QD × 5/wk × 2 wks): 91.8%
Max. BW loss % ([1]; 20 mg/kg IP QD × 5/wk × 2 wks): 1.2%
Lethal Tox ([1]; 20 mg/kg IP QD × 5/wk × 2 wks, 10 animals per group): 1
IC50 [2]: 3 nM

CC(OP(=O)(N1CC1)N1CC1)c1ccc([N+](=O)[O-])c(Oc2ccc3ccccc3c2)c1 (centres unmarked) [Compound 2955]
TGD 500 ([3]; 40 mg/kg IP QD × 5/wk × 2 wks): 47 days
TGI ([3]; 40 mg/kg IP QD × 5/wk × 2 wks): 78.9%
Max. BW loss % ([1]; 40 mg/kg IP QD × 5/wk × 2 wks): 0.6%
Lethal Tox ([1]; 40 mg/kg IP QD × 5/wk × 2 wks, 10 animals per group): 1
IC50 [2]: 6 nM

O=[N+]([O-])c1ccc(COP(=O)(N2CC2)N2CC2)cc1Oc1ccc(-c2ccccc2)cc1 [Compound 2958]
TGD 500 ([3]; 5 mg/kg IP QD × 5/wk × 2 wks): 44 days
TGI ([3]; 5 mg/kg IP QD × 5/wk × 2 wks): 77.9%
Max. BW loss % ([1]; 5 mg/kg IP QD × 5/wk × 2 wks): 2.1%
Lethal Tox ([1]; 5 mg/kg IP QD × 5/wk × 2 wks, 10 animals per group): 0
IC50 [2]: 2 nM

CC(=O)[C@H]1CC[C@H]2[C@@H]3CCC4=CC(=O)CC[C@]4(C)[C@H]3CC[C@]12C [Progesterone, progesterone, reference compound]
% Remaining ([4]; 0 min): 100%
% Remaining ([4]; 15 min): 70.8%
% Remaining ([4]; 30 min): 49.2%
% Remaining ([4]; 60 min): 20.1%
% Remaining ([4]; 90 min): 10.6%
% Remaining ([4]; 120 min): 6.40%
disappearance in the presence of AKR1C3 ([4]; in words): reduced slowly

S=P(N1CC1)(N1CC1)N1CC1 [Thio-TEPA, thiotepa, reference compound]
TGD 500 ([5]; 2.5 mpk): 3 days
TGD 1000 ([5]; 2.5 mpk): 2 days
inhibition in vivo at 2.5 mg/kg ([5]; Mus musculus, A-375, 2.5 mpk, read-out: TGI): 16.6%
Max. BW loss % [6, 9]: 0.0%
Max. BW loss % ([6]; 2.5 mg/kg ip QD × 5/wk × 2 wks): 0.4%
Max. BW loss % [7]: 0%
TGD 500 [8, 9]: 17 days
TGI [8, 9]: 56.1%
TGD 500 ([8]; 2.5 mg/kg ip QD × 5/wk × 2 wks): 26 days
TGI ([8]; 2.5 mg/kg ip QD × 5/wk × 2 wks): 68.3%
